Measured values as given in patent US12349665B2, “Animal model for hepatocellular carcinoma and uses thereof” (TAIPEI VETERANS GENERAL HOSPITAL, priority 2019, dated 2025).

Key:
Format in all cases: in vivo, mouse
[1] = system: drug resistant HBV genome; test: Antiviral drug treatment of HBV transgenic mice with drug resistant HBV genome, amount of virus in serum; details: compared with wild-type HBV genome mice
From the text: (§1) According to the present invention, the drug resistant HBV genome is resistant to an antiviral nucleoside analogue, such as adefovir or lamivudine.
(§2) The upper and lower limits of the rectangles in the figure are quartiles, and the horizontal lines within the rectangles indicate the median. Mann-Whitney U test was used for statistical analysis, and p=0.0093, showing the significant differences.

[2] = system: wild-type hepatitis B virus; test: Antiviral drug treatment of HBV transgenic mice with wild-type HBV genome, amount of virus in serum
From the text: as §1, §2

[3] = system: HBV; test: Long-term use and withdrawal of HBV antiviral drugs in hybrid mice (HBV transgenic x miR-122 knock-out), viral load; details: six-month-old hybrid mice, ETV 5 or 1 mg/kg; for amount of virus after one month of medication (M1) / amount of virus after one month of withdrawal (M2): TDF 135 or 50 mg/kg
Description: Six-month-old hybrid mice were fed with different doses of TDF (135 or 50 mg/kg-day) and […] (5 or 1 mg/kg-day).
(Wu & Wu et al. Gastroenterology 2014). At present, nucleoside analogues that are more commonly used clinically are tenofovir (TDF) and entecavir (ETV), which have strong antiviral efficacy and rarely have drug resistance. Reactivation of the virus and recurrence of hepatitis occurred more frequently and early after withdrawal of tenofovir (TDF) than after withdrawal of entecavir (ETV). Withdrawal of tenofovir (TDF) may sometimes cause liver failure for some unknown reason. The effect of long-term use and withdrawal of HBV antiviral drug tenofovir (TDF) and entecavir (ETV) on the amount of virus was compared. Six-month-old hybrid mice were fed with different doses of TDF (135 or 50 mg/kg) and ETV (5 or 1 mg/kg). […] Studies of efficacy and side effects of long-term use of tenofovir (TDF) or entecavir (ETV) on reducing hepatitis by using the hybrid mice are going on, and valuable clinical data will be provided.

SMILES	amount of serum virus after treatment with antiviral drug [1]	amount of serum virus after treatment with antiviral drug [2]	amount of virus after one month of medication (M1) [3]	amount of virus after one month of withdrawal (M2) [3]	amount of virus after 3 months of withdrawal (M4) [3]	amount of virus after 6 months of withdrawal (M7) [3]
Nc1ncnc2c1ncn2CCOCP(=O)(O)O [adefovir]	decreased much less	decreased by more than a thousand times				
CC(C)OC(=O)OCOP(=O)(CO[C@H](C)Cn1cnc2c(N)ncnc21)OCOC(=O)OC(C)C.O=C(O)/C=C/C(=O)O [TDF, tenofovir]			reduce the amount of virus to a minimum	quickly rose to the level before medication (M0)		
C=C1[C@H](CO)[C@@H](O)C[C@@H]1n1cnc2c(=O)[nH]c(N)nc21 [ETV, entecavir]			reduce the amount of virus to a minimum	maintained at the lower level	1.0E+5 to 1.0E+6	rose to the level before the medication (M0)
